Each structure is given as a SMILES string. Counter-ions that a name gives are not always drawn. A value given as a limit tells only on which side of the number the result lay.

One experiment relates to HIV wild type (WTRVA). The experiment is described as follows: HeLa cell assay, wild type virus (WTRVA). The following applies: HeLa-CD4-LTR-β-gal cells, wild type virus; trifluoroacetate; read-out: WTRVA activity level. Also on record: scale not given here. The class given is cell-based, HIV-1.
Take `N#Cc1cc(Cl)cc(Oc2c(Cl)ccc(CNC(=O)c3[nH]c4ccccc4c3Br)c2F)c1` [Example 54, 3-bromo-N-({4-chloro-3-[(3-chloro-5-cyanophenyl)oxy]-2-fluorophenyl}methyl)-1H-indole-2-carboxamide trifluoroacetate]: the IC50 was less than 0.01 µM.

The experiment is the same for the next values; noted with them: Human immunodeficiency virus 1, HeLa, HeLa cell assay; read-out: IC50 against WTRVA.
Regarding `N#Cc1cc(Oc2c(Cl)ccc(CNC(=O)c3[nH]c(N)nc3Cl)c2F)cc(C2CC2)c1` [Example 307, 2-amino-4-chloro-N-({4-chloro-3-[(3-cyano-5-cyclopropylphenyl)oxy]-2-fluorophenyl}methyl)-1H-imidazole-5-carboxamide trifluoroacetate], the IC50 was less than 0.01 µM.
On the same count and under the same terms, then `Cc1nc(Cl)c(C(=O)NCc2ccc(Cl)c(Oc3cc(C#N)cc(C4CC4)n3)c2F)[nH]1` [Example 273, 4-Chloro-N-({4-chloro-3-[(4-cyano-6-cyclopropyl-2-pyridinyl)oxy]-2-fluorophenyl}methyl)-2-methyl-1H-imidazole-5-carboxamide], with less than 0.01 µM; and `Cc1cc(C#N)cc(Oc2c(Cl)ccc(CNC(=O)c3[nH]cnc3Cl)c2F)c1` [Example 145, 4-chloro-N-({4-chloro-3-[(3-cyano-5-methylphenyl)oxy]-2-fluorophenyl}methyl)-1H-imidazole-5-carboxamide], with less than 0.01 µM.
The same measure, in the same setting: then `C#Cc1cc(Cl)cc(Oc2c(Cl)ccc(CNC(=O)c3[nH]cnc3Cl)c2F)c1` [Example 293, 4-chloro-N-({4-chloro-3-[(3-chloro-5-ethynylphenyl)oxy]-2-fluorophenyl}methyl)-1H-imidazole-5-carboxamide], with less than 0.01 µM; and `N#Cc1cc(Oc2c(Cl)ccc(CNC(=O)c3[nH]cnc3Br)c2F)cc(C(F)F)c1` [Example 375, 4-bromo-N-[(4-chloro-3-{[3-cyano-5-(difluoromethyl)phenyl]oxy}-2-fluorophenyl)methyl]-1H-imidazole-5-carboxamide], with less than 0.01 µM.
Turning to `N#Cc1cc(CC2CC2)cc(Oc2c(Cl)ccc(CNC(=O)c3[nH]cnc3Cl)c2F)c1` [Example 157, 4-chloro-N-[(4-chloro-3-{[3-cyano-5-(cyclopropylmethyl)phenyl]oxy}-2-fluorophenyl)methyl]-1H-imidazole-5-carboxamide], the IC50 is less than 0.01 µM.

The experiment is the same for the next values; noted with them: Human immunodeficiency virus 1, HeLa, HeLa-CD4-LTR-β-gal cells, wild type virus; read-out: WTRVA activity level.
For `CSc1ncc(Cl)c(C(=O)NCc2ccc(Cl)c(Oc3cc(Cl)cc(C#N)c3)c2F)n1` [Example 101, 5-chloro-N-({4-chloro-3-[(3-chloro-5-cyanophenyl)oxy]-2-fluorophenyl}methyl)-2-(methylthio)-4-pyrimidinecarboxamide], the IC50 fell in the range of 0.01 to 1 µM.
The same measure, in the same setting: then `COc1ccc2c(C(=O)NCc3ccc(Cl)c(Oc4cc(Cl)cc(C#N)c4)c3)c[nH]c2c1` [Example 3, N-({4-chloro-3-[(3-chloro-5-cyanophenyl)oxy]phenyl}methyl)-6-(methyloxy)-1H-indole-3-carboxamide], with greater than 1 µM; and `N#Cc1cc(Cl)cc(Oc2c(Cl)ccc(CNC(=O)c3[nH]c4ccccc4c3Cl)c2F)c1` [Example 75, 3-chloro-N-({4-chloro-3-[(3-chloro-5-cyanophenyl)oxy]-2-fluorophenyl}methyl)-1H-indole-2-carboxamide trifluoroacetate], with less than 0.01 µM; and `N#Cc1cc(Cl)cc(Oc2c(Cl)ccc(CNC(=O)c3cn[nH]c3)c2F)c1` [Example 100, N-({4-chloro-3-[(3-chloro-5-cyanophenyl)oxy]-2-fluorophenyl}methyl)-1H-pyrazole-4-carboxamide trifluoroacetate], with less than 0.01 µM.
Still for that read-out and setting: the figure for `Cn1ccnc1C(=O)NCc1ccc(Cl)c(Oc2cc(Cl)cc(C#N)c2)c1F` [Example 72, N-({4-chloro-3-[(3-chloro-5-cyanophenyl)oxy]-2-fluorophenyl}methyl)-1-methyl-1H-imidazole-2-carboxamide trifluoroacetate] is 0.01 to 1 µM; for `Cn1cncc1C(=O)NCc1ccc(Cl)c(Oc2cc(Cl)cc(C#N)c2)c1F` [Example 67, N-({4-chloro-3-[(3-chloro-5-cyanophenyl)oxy]-2-fluorophenyl}methyl)-1-methyl-1H-imidazole-5-carboxamide trifluoroacetate] it is 0.01 to 1 µM; for `CCCCc1nc(Cl)c(C(=O)NCc2ccc(Cl)c(Oc3cc(Cl)cc(C#N)c3)c2F)[nH]1` [Example 140, 2-butyl-4-chloro-N-({4-chloro-3-[(3-chloro-5-cyanophenyl)oxy]-2-fluorophenyl}methyl)-1H-imidazole-5-carboxamide trifluoroacetate] it is less than 0.01 µM.
The same measure, in the same setting: the figure for `COc1ccc2cc(C(=O)NCc3ccc(Cl)c(Oc4cc(Cl)cc(C#N)c4)c3F)[nH]c2c1` [Example 21, N-({4-chloro-3-[(3-chloro-5-cyanophenyl)oxy]-2-fluorophenyl}methyl)-6-(methyloxy)-1H-indole-2-carboxamide] is 0.01 to 1 µM; for `N#Cc1cc(Cl)cc(Oc2c(Cl)ccc(CNC(=O)c3cc4cc(N(CC5CC5)CC5CC5)ccc4[nH]3)c2F)c1` [Example 127, 5-[bis(cyclopropylmethyl)amino]-N-({4-chloro-3-[(3-chloro-5-cyanophenyl)oxy]-2-fluorophenyl}methyl)-1H-indole-2-carboxamide] it is 0.01 to 1 µM; for `CC(C)(C)OC(=O)N1CCO[C@@H](COc2ccc3[nH]c(C(=O)NCc4ccc(Cl)c(Oc5cc(Cl)cc(C#N)c5)c4F)cc3c2)C1` [Example 23, 1,1-dimethylethyl (2R)-2-{[(2-{[({4-chloro-3-[(3-chloro-5-cyanophenyl)oxy]-2-fluorophenyl}methyl)amino]carbonyl}-1H-indol-5-yl)oxy]methyl}-4-morpholinecarboxylate] it is 0.01 to 1 µM.
As for `Cc1cc(Br)cc2cc(C(=O)NCc3ccc(Cl)c(Oc4cc(Cl)cc(C#N)c4)c3F)[nH]c12` [Example 30, 5-bromo-N-({4-chloro-3-[(3-chloro-5-cyanophenyl)oxy]-2-fluorophenyl}methyl)-7-methyl-1H-indole-2-carboxamide], the IC50 is 0.01 to 1 µM.
Same read-out and setting: then `CSc1ncccc1C(=O)NCc1ccc(Cl)c(Oc2cc(Cl)cc(C#N)c2)c1F` [Example 86, N-({4-chloro-3-[(3-chloro-5-cyanophenyl)oxy]-2-fluorophenyl}methyl)-2-(methylthio)-3-pyridinecarboxamide trifluoroacetate], with 0.01 to 1 µM; and `N#Cc1cc(Cl)cc(Oc2c(Cl)ccc(CNC(=O)c3[nH]c4cc(OCCO)ccc4c3Br)c2F)c1` [Example 141, 3-Bromo-N-({4-chloro-3-[(3-chloro-5-cyanophenyl)oxy]-2-fluorophenyl}methyl)-6-[(2-hydroxyethyl)oxy]-1H-indole-2-carboxamide], with less than 0.01 µM.
Still for that read-out and setting: the figure for `N#Cc1cc(Cl)cc(Oc2c(Cl)ccc(CNC(=O)c3cc[nH]n3)c2F)c1` [Example 95, N-({4-chloro-3-[(3-chloro-5-cyanophenyl)oxy]-2-fluorophenyl}methyl)-1H-pyrazole-3-carboxamide] is 0.01 to 1 µM.
The same measure, in the same setting: then `N#Cc1cc(Cl)cc(Oc2cc(CNC(=O)c3cc4cc([N+](=O)[O-])ccc4[nH]3)ccc2Cl)c1` [Example 9, N-({4-chloro-3-[(3-chloro-5-cyanophenyl)oxy]phenyl}methyl)-5-nitro-1H-indole-2-carboxamide], with greater than 1 µM; and `COc1ccc(C(=O)NCc2ccc(Cl)c(Oc3cc(Cl)cc(C#N)c3)c2)c(C)c1` [Example 2, N-({4-chloro-3-[(3-chloro-5-cyanophenyl)oxy]phenyl}methyl)-2-methyl-4-(methyloxy)benzamide], with greater than 1 µM.
